{"source": "ChEMBL document CHEMBL1145579", "about": "“Development of potent and selective small-molecule human Urotensin-II antagonists” (Bioorg Med Chem Lett, 2008)"}
{"target": "T1, Urotensin-2 receptor (Homo sapiens, UniProt Q9UKP6)", "T1 sequence (Q9UKP6 whole entry)": "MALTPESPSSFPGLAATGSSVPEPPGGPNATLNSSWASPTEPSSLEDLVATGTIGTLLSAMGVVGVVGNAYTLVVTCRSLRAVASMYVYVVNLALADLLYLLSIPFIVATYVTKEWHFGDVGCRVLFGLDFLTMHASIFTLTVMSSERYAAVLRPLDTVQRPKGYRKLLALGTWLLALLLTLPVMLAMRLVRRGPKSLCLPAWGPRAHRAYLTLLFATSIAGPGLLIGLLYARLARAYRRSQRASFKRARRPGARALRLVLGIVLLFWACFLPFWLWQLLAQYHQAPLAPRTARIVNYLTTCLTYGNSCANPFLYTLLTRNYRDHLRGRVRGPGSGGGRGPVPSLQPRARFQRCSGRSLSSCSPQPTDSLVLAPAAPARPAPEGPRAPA", "assay": "Displacement of [125I]hU-2 from human recombinant Urotensin 2 receptor expressed in HEK293 cells", "type": "cell-based", "conditions": "not given", "units": {"Ki": "µM"}}
{"smiles": "O=C(Cn1c(=O)oc2ccc(Cl)cc21)N1CCCC(c2ccccc2)C1CN1CCCC1", "note": "(racemic)", "Ki": 0.005}
{"smiles": "Cc1cc2c(cc1C)N(CC(=O)N1CCCC(c3ccccc3)C1CN1CCCC1)C(=O)CO2", "note": "(racemic)", "Ki": 0.0004}
{"smiles": "Cc1cc2ncc(=O)n(CC(=O)N3CCCC(c4ccccc4)C3CN3CCCC3)c2cc1C", "note": "(racemic)", "Ki": 0.001}
{"smiles": "N#CCN(CC(=O)N1CCCC(c2ccccc2)C1CN1CCCC1)c1ccc(Cl)c(Cl)c1", "note": "(racemic)", "Ki": 0.002}
{"smiles": "N#CCN(CC(=O)N1CCCC(c2ccccc2)C1CN1CCOCC1)c1ccc(Cl)c(Cl)c1", "note": "(racemic)", "Ki": 0.006}
{"smiles": "O=C1COc2cc(Cl)c(Cl)cc2N1CC(=O)N1CCCC(c2ccccc2)C1CN1CCOCC1", "note": "(racemic)", "Ki": 0.002}
{"smiles": "CN(CC(=O)N1CCCC(c2ccccc2)C1CN1CCOCC1)c1ccc(Cl)c(Cl)c1", "note": "(racemic)", "Ki": 0.079}
{"smiles": "COCCN(CC(=O)N1CCCC(c2ccccc2)C1CN1CCOCC1)c1ccc(Cl)c(Cl)c1", "note": "(racemic)", "Ki": 0.13}
{"smiles": "O=C(Cn1c(=O)oc2ccc(Cl)cc21)N1CCCC(c2ccccc2)C1CN1CCOCC1", "note": "(racemic)", "Ki": 0.04}
{"target": "T2, Urotensin-2 receptor (Rattus norvegicus) (UniProt P49684)", "T2 sequence (whole entry)": "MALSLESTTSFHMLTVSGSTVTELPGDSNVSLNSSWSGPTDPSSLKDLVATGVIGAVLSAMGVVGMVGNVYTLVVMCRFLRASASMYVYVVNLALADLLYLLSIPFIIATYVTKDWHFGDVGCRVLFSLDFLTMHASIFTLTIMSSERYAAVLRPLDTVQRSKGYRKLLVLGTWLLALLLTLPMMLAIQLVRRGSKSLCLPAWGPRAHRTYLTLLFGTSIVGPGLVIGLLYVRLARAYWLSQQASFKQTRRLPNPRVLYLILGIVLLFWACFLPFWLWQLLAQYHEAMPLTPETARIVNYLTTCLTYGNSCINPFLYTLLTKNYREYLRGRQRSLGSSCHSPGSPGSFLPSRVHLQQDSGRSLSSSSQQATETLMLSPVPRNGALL", "assay": "Binding affinity at Urotensin 2 receptor in rat aorta.", "conditions": "not given", "units": {"Kb": "µM"}}
{"smiles": "N#CCN(CC(=O)N1CCCC(c2ccccc2)C1CN1CCCC1)c1ccc(Cl)c(Cl)c1", "note": "(racemic)", "Kb": 0.005}
{"target": "Cytochrome P450 2D6 (Homo sapiens, UniProt P10635)", "sequence (P10635 whole entry)": "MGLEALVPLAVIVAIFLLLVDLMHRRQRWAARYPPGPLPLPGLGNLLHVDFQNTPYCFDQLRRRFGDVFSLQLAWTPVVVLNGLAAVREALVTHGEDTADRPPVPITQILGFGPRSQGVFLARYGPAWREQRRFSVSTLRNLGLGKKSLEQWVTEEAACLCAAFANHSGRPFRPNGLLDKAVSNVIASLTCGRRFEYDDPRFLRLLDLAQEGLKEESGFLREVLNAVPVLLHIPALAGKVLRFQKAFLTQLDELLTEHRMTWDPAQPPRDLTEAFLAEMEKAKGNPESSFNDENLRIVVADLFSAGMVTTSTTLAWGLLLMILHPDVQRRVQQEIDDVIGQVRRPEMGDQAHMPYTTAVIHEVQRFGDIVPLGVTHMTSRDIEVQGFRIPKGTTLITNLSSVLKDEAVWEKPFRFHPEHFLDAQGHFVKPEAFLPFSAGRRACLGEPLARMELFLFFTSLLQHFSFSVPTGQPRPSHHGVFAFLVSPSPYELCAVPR", "assay": "Inhibition of CYP2D6", "type": "ADME", "conditions": "not given", "units": {"IC50": "µM"}}
{"smiles": "O=C(Cn1c(=O)oc2ccc(Cl)cc21)N1CCCC(c2ccccc2)C1CN1CCCC1", "note": "(racemic)", "IC50": 2.2}
{"smiles": "Cc1cc2c(cc1C)N(CC(=O)N1CCCC(c3ccccc3)C1CN1CCCC1)C(=O)CO2", "note": "(racemic)", "IC50": 5.1}
{"smiles": "Cc1cc2ncc(=O)n(CC(=O)N3CCCC(c4ccccc4)C3CN3CCCC3)c2cc1C", "note": "(racemic)", "IC50": 8.4}
{"smiles": "N#CCN(CC(=O)N1CCCC(c2ccccc2)C1CN1CCCC1)c1ccc(Cl)c(Cl)c1", "note": "(racemic)", "IC50": 2.3}
{"smiles": "N#CCN(CC(=O)N1CCCC(c2ccccc2)C1CN1CCOCC1)c1ccc(Cl)c(Cl)c1", "note": "(racemic)", "IC50": 3.7}
{"smiles": "O=C1COc2cc(Cl)c(Cl)cc2N1CC(=O)N1CCCC(c2ccccc2)C1CN1CCOCC1", "note": "(racemic)", "IC50": 4.8}
{"smiles": "CN(CC(=O)N1CCCC(c2ccccc2)C1CN1CCOCC1)c1ccc(Cl)c(Cl)c1", "note": "(racemic)", "IC50": 2.3}
{"smiles": "COCCN(CC(=O)N1CCCC(c2ccccc2)C1CN1CCOCC1)c1ccc(Cl)c(Cl)c1", "note": "(racemic)", "IC50": 3.2}
{"smiles": "O=C(Cn1c(=O)oc2ccc(Cl)cc21)N1CCCC(c2ccccc2)C1CN1CCOCC1", "note": "(racemic)", "IC50": 3.5}
{"tested_on": "not listed separately", "assay": "Half life in rat at 2 mg/kg, iv and 4 mg/kg, po", "type": "ADME, organism-based", "conditions": "in vivo", "units": {"half-life": "h"}}
{"smiles": "N#CCN(CC(=O)N1CCCC(c2ccccc2)C1CN1CCCC1)c1ccc(Cl)c(Cl)c1", "note": "(racemic)", "half-life": 3.2}
{"smiles": "N#CCN(CC(=O)N1CCCC(c2ccccc2)C1CN1CCOCC1)c1ccc(Cl)c(Cl)c1", "note": "(racemic)", "half-life": 2.6}
{"tested_on": "not listed separately", "assay": "Volume of distribution at steady state in rat at 2 mg/kg, iv and 4 mg/kg, po", "type": "ADME, organism-based", "conditions": "in vivo, read-out: Vdss", "units": {"Vd": "L/kg"}}
{"smiles": "N#CCN(CC(=O)N1CCCC(c2ccccc2)C1CN1CCCC1)c1ccc(Cl)c(Cl)c1", "note": "(racemic)", "Vd": 27}
{"smiles": "N#CCN(CC(=O)N1CCCC(c2ccccc2)C1CN1CCOCC1)c1ccc(Cl)c(Cl)c1", "note": "(racemic)", "Vd": 8}
{"tested_on": "not listed separately", "assay": "Clearance in rat at 2 mg/kg, iv and 4 mg/kg, po", "type": "ADME, organism-based", "conditions": "in vivo", "units": {"clearance": "mL/min/kg"}}
{"smiles": "N#CCN(CC(=O)N1CCCC(c2ccccc2)C1CN1CCCC1)c1ccc(Cl)c(Cl)c1", "note": "(racemic)", "clearance": 100}
{"smiles": "N#CCN(CC(=O)N1CCCC(c2ccccc2)C1CN1CCOCC1)c1ccc(Cl)c(Cl)c1", "note": "(racemic)", "clearance": 60}
{"tested_on": "not listed separately", "assay": "Oral bioavailability in rat at 4 mg/kg, po", "type": "ADME, organism-based", "conditions": "in vivo", "units": {"bioavailability": "%"}}
{"smiles": "N#CCN(CC(=O)N1CCCC(c2ccccc2)C1CN1CCCC1)c1ccc(Cl)c(Cl)c1", "note": "(racemic)", "bioavailability": 12}
{"smiles": "N#CCN(CC(=O)N1CCCC(c2ccccc2)C1CN1CCOCC1)c1ccc(Cl)c(Cl)c1", "note": "(racemic)", "bioavailability": 7}
{"target": "Kappa-type opioid receptor (Homo sapiens, UniProt P41145)", "sequence (P41145 whole entry)": "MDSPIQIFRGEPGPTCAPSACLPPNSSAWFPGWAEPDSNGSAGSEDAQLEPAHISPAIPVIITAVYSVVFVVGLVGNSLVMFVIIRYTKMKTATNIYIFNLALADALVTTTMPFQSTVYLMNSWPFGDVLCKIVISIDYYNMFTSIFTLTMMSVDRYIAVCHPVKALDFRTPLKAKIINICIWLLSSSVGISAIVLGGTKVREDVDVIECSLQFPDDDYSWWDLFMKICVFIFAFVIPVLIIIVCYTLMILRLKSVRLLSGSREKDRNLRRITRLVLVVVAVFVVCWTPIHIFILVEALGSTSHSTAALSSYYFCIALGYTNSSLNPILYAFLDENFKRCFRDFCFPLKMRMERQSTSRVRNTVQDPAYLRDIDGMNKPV", "assay": "Agonist activity at kappa opioid receptor", "type": "functional", "conditions": "not given", "units": {"EC50": "µM"}}
{"smiles": "O=C(Cn1c(=O)oc2ccc(Cl)cc21)N1CCCC(c2ccccc2)C1CN1CCCC1", "note": "(racemic)", "EC50": 5}
{"smiles": "Cc1cc2c(cc1C)N(CC(=O)N1CCCC(c3ccccc3)C1CN1CCCC1)C(=O)CO2", "note": "(racemic)", "EC50": 5}
{"smiles": "Cc1cc2ncc(=O)n(CC(=O)N3CCCC(c4ccccc4)C3CN3CCCC3)c2cc1C", "note": "(racemic)", "EC50": 6.3}
{"smiles": "N#CCN(CC(=O)N1CCCC(c2ccccc2)C1CN1CCCC1)c1ccc(Cl)c(Cl)c1", "note": "(racemic)", "EC50": 0.79}
{"smiles": "N#CCN(CC(=O)N1CCCC(c2ccccc2)C1CN1CCOCC1)c1ccc(Cl)c(Cl)c1", "note": "(racemic)", "EC50": 5}
{"smiles": "O=C1COc2cc(Cl)c(Cl)cc2N1CC(=O)N1CCCC(c2ccccc2)C1CN1CCOCC1", "note": "(racemic)", "EC50": 7.9}
{"smiles": "CN(CC(=O)N1CCCC(c2ccccc2)C1CN1CCOCC1)c1ccc(Cl)c(Cl)c1", "note": "(racemic)", "EC50": 1}
{"smiles": "COCCN(CC(=O)N1CCCC(c2ccccc2)C1CN1CCOCC1)c1ccc(Cl)c(Cl)c1", "note": "(racemic)", "EC50": 10}
{"smiles": "O=C(Cn1c(=O)oc2ccc(Cl)cc21)N1CCCC(c2ccccc2)C1CN1CCOCC1", "note": "(racemic)", "EC50": 1.3}
{"target": "not listed separately", "assay": "Binding affinity at batrachotoxinin sensitive Sodium channel in rat brain", "type": "tissue-based", "conditions": "not given", "units": {"Ki": "µM"}}
{"smiles": "O=C(Cn1c(=O)oc2ccc(Cl)cc21)N1CCCC(c2ccccc2)C1CN1CCCC1", "note": "(racemic)", "Ki": 0.15}
{"smiles": "Cc1cc2c(cc1C)N(CC(=O)N1CCCC(c3ccccc3)C1CN1CCCC1)C(=O)CO2", "note": "(racemic)", "Ki": 0.39}
{"smiles": "Cc1cc2ncc(=O)n(CC(=O)N3CCCC(c4ccccc4)C3CN3CCCC3)c2cc1C", "note": "(racemic)", "Ki": 1.4}
{"smiles": "N#CCN(CC(=O)N1CCCC(c2ccccc2)C1CN1CCCC1)c1ccc(Cl)c(Cl)c1", "note": "(racemic)", "Ki": 1.6}
{"smiles": "N#CCN(CC(=O)N1CCCC(c2ccccc2)C1CN1CCOCC1)c1ccc(Cl)c(Cl)c1", "note": "(racemic)", "Ki": 4}
{"smiles": "O=C1COc2cc(Cl)c(Cl)cc2N1CC(=O)N1CCCC(c2ccccc2)C1CN1CCOCC1", "note": "(racemic)", "Ki": 1.3}
{"smiles": "CN(CC(=O)N1CCCC(c2ccccc2)C1CN1CCOCC1)c1ccc(Cl)c(Cl)c1", "note": "(racemic)", "Ki": 1.6}
{"smiles": "COCCN(CC(=O)N1CCCC(c2ccccc2)C1CN1CCOCC1)c1ccc(Cl)c(Cl)c1", "note": "(racemic)", "Ki": 3.2}
{"smiles": "O=C(Cn1c(=O)oc2ccc(Cl)cc21)N1CCCC(c2ccccc2)C1CN1CCOCC1", "note": "(racemic)", "Ki": 0.73}
{"tested_on": "not listed separately", "assay": "Cmax in rat at 2 mg/kg, iv and 4 mg/kg, po", "type": "ADME, organism-based", "conditions": "in vivo", "units": {"Cmax": "ng/mL"}}
{"smiles": "N#CCN(CC(=O)N1CCCC(c2ccccc2)C1CN1CCCC1)c1ccc(Cl)c(Cl)c1", "note": "(racemic)", "Cmax": 120}
{"smiles": "N#CCN(CC(=O)N1CCCC(c2ccccc2)C1CN1CCOCC1)c1ccc(Cl)c(Cl)c1", "note": "(racemic)", "Cmax": 370}
{"target": "Cytochrome P450 3A4 (Homo sapiens, UniProt P08684)", "sequence (P08684 whole entry)": "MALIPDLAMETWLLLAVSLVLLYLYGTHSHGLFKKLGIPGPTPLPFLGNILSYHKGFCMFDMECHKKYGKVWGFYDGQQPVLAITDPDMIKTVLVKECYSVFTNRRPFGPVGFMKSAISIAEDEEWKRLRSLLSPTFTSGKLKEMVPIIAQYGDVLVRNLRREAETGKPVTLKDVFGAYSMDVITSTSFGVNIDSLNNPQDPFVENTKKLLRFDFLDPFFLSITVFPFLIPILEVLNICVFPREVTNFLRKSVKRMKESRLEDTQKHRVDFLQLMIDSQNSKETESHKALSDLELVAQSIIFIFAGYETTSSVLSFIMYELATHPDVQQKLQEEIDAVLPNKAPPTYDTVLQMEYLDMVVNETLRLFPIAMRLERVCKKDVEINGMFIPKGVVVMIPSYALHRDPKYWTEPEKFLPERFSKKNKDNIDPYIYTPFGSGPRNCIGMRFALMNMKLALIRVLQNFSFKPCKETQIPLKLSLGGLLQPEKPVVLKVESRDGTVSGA", "conditions": "not given", "units": {"IC50": "µM"}}
{"smiles": "O=C(Cn1c(=O)oc2ccc(Cl)cc21)N1CCCC(c2ccccc2)C1CN1CCCC1", "note": "(racemic)", "IC50": 2.1}
{"smiles": "Cc1cc2c(cc1C)N(CC(=O)N1CCCC(c3ccccc3)C1CN1CCCC1)C(=O)CO2", "note": "(racemic)", "IC50": 3.9}
{"smiles": "Cc1cc2ncc(=O)n(CC(=O)N3CCCC(c4ccccc4)C3CN3CCCC3)c2cc1C", "note": "(racemic)", "IC50": 6.8}
{"smiles": "N#CCN(CC(=O)N1CCCC(c2ccccc2)C1CN1CCCC1)c1ccc(Cl)c(Cl)c1", "note": "(racemic)", "IC50": 1.1}
{"smiles": "N#CCN(CC(=O)N1CCCC(c2ccccc2)C1CN1CCOCC1)c1ccc(Cl)c(Cl)c1", "note": "(racemic)", "IC50": 0.49}
{"smiles": "O=C1COc2cc(Cl)c(Cl)cc2N1CC(=O)N1CCCC(c2ccccc2)C1CN1CCOCC1", "note": "(racemic)", "IC50": 0.73}
{"smiles": "COCCN(CC(=O)N1CCCC(c2ccccc2)C1CN1CCOCC1)c1ccc(Cl)c(Cl)c1", "note": "(racemic)", "IC50": 0.48}
{"smiles": "O=C(Cn1c(=O)oc2ccc(Cl)cc21)N1CCCC(c2ccccc2)C1CN1CCOCC1", "note": "(racemic)", "IC50": 1.3}
